Our source for the IC50 values is patent publication US20230416256A1, “SMALL MOLECULE INHIBITORS OF NF-kB INDUCING KINASE” (Janssen Pharmaceutica NV, priority 2020, published 2023).

Read-outs that look alike come from different tables or passages of the source.

Test [1] concerns the target recombinant human NF-kappaB-inducing kinase (NIK/MAP3K14) (Homo sapiens, UniProt Q99558). Briefly: Inhibition of auto-phosphorylation of recombinant human NIK/MAP3K14 activity (AlphaScreen). Format: biochemical. The following applies: GST-tagged NIK/MAP3K14 1 nM, 5 μM ATP, 2 h at 25° C.; average of values obtained. A digest of the protocol: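 GST-tagged NIK (1 nM) auto-phosphorylated for 2 h at 25 °C with 5 μM ATP in 50 mM Tris pH 7.5, 5 mM MgCl2, 0.7% DMSO. Phospho-Ser176/180 was detected by AlphaScreen using an anti-phospho-IKK antibody. IC50 came from sigmoidal fits of % inhibition versus high (full activity) and low (no ATP) controls.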
(In general: Bead proximity is the source of the signal in Alpha formats.)

Test [2] relates to p-IKKα levels in L363 (NIK translocated multiple myeloma) cells. Briefly: Effect of compounds on p-IKKα levels in L363 cells (AlphaLISA SureFire Ultra). Type of test: cell-based, human. The note with it: 10 μM MG132, 6 h, average of values obtained, read-out: Assay 2 IC50. A digest of the protocol: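 L363 cells were BAFF-stimulated overnight (250 ng/ml) in DMEM/0.5% BSA, then exposed to an 11-point 1:3 compound series (0.3% DMSO) with BAFF and 10 μM MG132 for 6 h at 37 °C. p-IKKα (Ser176/180) was measured by AlphaLISA SureFire Ultra. IC50 was fitted from % inhibition normalized to stimulated and unstimulated controls.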

Where [3] appears, read: Homo sapiens, L-363, 250 ng/ml BAFF stimulated.
Where [4] appears, read: Homo sapiens, L-363, 6 h, 250 ng/ml BAFF stimulated.

Sequence of recombinant human NF-kappaB-inducing kinase (NIK/MAP3K14) (Q99558 whole entry): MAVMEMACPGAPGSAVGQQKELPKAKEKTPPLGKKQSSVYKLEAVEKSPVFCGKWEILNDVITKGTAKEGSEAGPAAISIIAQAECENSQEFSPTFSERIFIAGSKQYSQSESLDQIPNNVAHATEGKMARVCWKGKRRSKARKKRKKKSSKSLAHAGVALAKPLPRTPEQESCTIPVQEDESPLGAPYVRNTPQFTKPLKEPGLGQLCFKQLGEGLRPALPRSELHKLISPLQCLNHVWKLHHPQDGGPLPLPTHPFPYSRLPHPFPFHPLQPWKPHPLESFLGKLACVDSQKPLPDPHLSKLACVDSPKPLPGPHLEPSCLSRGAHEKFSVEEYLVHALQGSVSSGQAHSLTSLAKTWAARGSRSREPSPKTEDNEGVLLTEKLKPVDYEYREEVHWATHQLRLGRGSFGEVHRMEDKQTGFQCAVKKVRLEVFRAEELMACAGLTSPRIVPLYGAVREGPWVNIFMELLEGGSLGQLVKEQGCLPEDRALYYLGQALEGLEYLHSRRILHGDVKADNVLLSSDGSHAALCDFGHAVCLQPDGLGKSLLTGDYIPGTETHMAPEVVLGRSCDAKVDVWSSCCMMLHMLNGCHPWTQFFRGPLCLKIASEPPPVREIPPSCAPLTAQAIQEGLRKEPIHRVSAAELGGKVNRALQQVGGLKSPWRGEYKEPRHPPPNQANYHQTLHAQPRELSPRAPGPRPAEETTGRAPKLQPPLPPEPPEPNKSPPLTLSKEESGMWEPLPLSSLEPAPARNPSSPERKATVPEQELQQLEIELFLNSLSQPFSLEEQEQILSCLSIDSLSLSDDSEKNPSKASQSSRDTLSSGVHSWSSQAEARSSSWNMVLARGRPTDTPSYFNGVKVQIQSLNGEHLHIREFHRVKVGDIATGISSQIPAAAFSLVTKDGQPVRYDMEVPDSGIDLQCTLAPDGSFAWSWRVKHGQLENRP

The IC50 is the concentration needed to halve the response being measured. With `CN1CC[C@@](O)(c2cccc(-c3nc(-c4c[nH]c5ncccc45)sc3CO)c2)C1=O` [Example 50, (R)-3-Hydroxy-3-(3-(5-(hydroxymethyl)-2-(1H-pyrrolo[2,3-b]pyridin-3-yl)thiazol-4-yl)phenyl)-1-methylpyrrolidin-2-one], the IC50 in test [1] is at most 100 nM; in test [2] (setting [3]), over 500 nM.

As for `CN1C(=O)[C@@](O)(c2cccc(-c3csc(-c4c[nH]c5ncccc45)n3)c2)c2ncccc21` [Example 91, (R)-3-(3-(2-(1H-Pyrrolo[2,3-b]pyridin-3-yl)thiazol-4-yl)phenyl)-3-hydroxy-1-methyl-1,3-dihydro-2H-pyrrolo[3,2-b]pyridin-2-one], the half-inhibitory concentration (IC50) in test [1] and in test [2] (setting [3]) was over 500 nM in each case.

For the compound `C[C@@]1(O)C[C@](O)(c2cccc(-c3csc(-c4c[nH]c5ncccc45)n3)c2)c2ncccc21` (single isomer, unassigned) [Example 107], the half-inhibitory concentration (IC50) in test [1] and in test [2] (setting [4]) was over 500 nM in each case.

On to `N#Cc1cnc2[nH]cc(-c3nc(-c4cccc([C@]5(O)CCn6ccnc65)c4)cs3)c2c1` [Example 26, (R)-3-(4-(3-(7-Hydroxy-6,7-dihydro-5H-pyrrolo[1,2-a]imidazol-7-yl)phenyl)thiazol-2-yl)-1H-pyrrolo[2,3-b]pyridine-5-carbonitrile], for which the IC50 in test [1] and in test [2] (setting [4]) was at most 100 nM in each case.

As to `O[C@@]1(c2cccc(-c3coc(-c4c[nH]c5ncccc45)c3)c2)CCn2ccnc21` [Example 30, (R)-7-(3-(5-(1H-Pyrrolo[2,3-b]pyridin-3-yl)furan-3-yl)phenyl)-6,7-dihydro-5H-pyrrolo[1,2-a]imidazol-7-ol], the IC50 in test [1] is at most 100 nM; in test [2] (setting [4]) it was over 500 nM.

On to `CN1CC[C@@](O)(c2cccc(-c3coc(-c4c[nH]c5ncccc45)c3)c2)C1=O` [Example 93, (R)-3-(3-(5-(1H-Pyrrolo[2,3-b]pyridin-3-yl)furan-3-yl)phenyl)-3-hydroxy-1-methylpyrrolidin-2-one], for which the concentration for half-maximal inhibition (IC50) in test [1] is at most 100 nM; in test [2] (setting [3]), over 500 nM.

`C[C@@](O)(c1cccc(-c2csc(-c3c[nH]c4ncccc34)n2)c1)c1ncc[nH]1` (single isomer, unassigned) [Example 80]: the IC50 in test [1] and in test [2] (setting [4]) was over 500 nM in each case.

Consider `O[C@@]1(c2cccc(-c3csc(-c4c[nH]c5nccc(F)c45)n3)c2)CCn2ccnc21` [Example 29, (R)-7-(3-(2-(4-Fluoro-1H-pyrrolo[2,3-b]pyridin-3-yl)thiazol-4-yl)phenyl)-6,7-dihydro-5H-pyrrolo[1,2-a]imidazol-7-ol], for which the 50% inhibitory concentration (IC50) in test [1] and in test [2] (setting [4]) was at most 100 nM each time.

Take `CN1CC[C@@](O)(c2cccc(-c3csc(-c4c[nH]c5ncc(F)c(F)c45)n3)c2)C1=O` [Example 94, (R)-3-(3-(2-(4,5-Difluoro-1H-pyrrolo[2,3-b]pyridin-3-yl)thiazol-4-yl)phenyl)-3-hydroxy-1-methylpyrrolidin-2-one]: the IC50 in test [1] is at most 100 nM; in test [2] (setting [3]) it was over 500 nM.

On to `CN1CC[C@](O)(c2cccc(-c3csc(-c4c[nH]c5nccnc45)n3)c2)C1=O` (single isomer, unassigned) [Example 39], for which the half-maximal inhibitory concentration (IC50) in test [1] and in test [2] (setting [3]) was over 500 nM in each case.

As for `CN1CC[C@@](O)(c2cccc(-n3ccc(-c4c[nH]c5ncccc45)n3)c2)C1=O` (single isomer, unassigned) [Example 122], the half-maximal inhibitory concentration (IC50) is at most 100 nM in test [1] and over 500 nM in test [2] (setting [3]).

In the case of `O[C@@]1(c2cccc(-c3csc(-c4c[nH]c5ncc(F)c(F)c45)n3)c2)CCn2ccnc21` [Example 96, (R)-7-(3-(2-(4,5-Difluoro-1H-pyrrolo[2,3-b]pyridin-3-yl)thiazol-4-yl)phenyl)-6,7-dihydro-5H-pyrrolo[1,2-a]imidazol-7-ol], the IC50 in test [1] is at most 100 nM; in test [2] (setting [4]), over 500 nM.

On to `O[C@@H]1C[C@@](O)(c2cccc(-c3csc(-c4c[nH]c5ncccc45)n3)c2)c2ncccc21` (single isomer, unassigned) [Example 101], for which the values for the IC50 in test [1] and in test [2] (setting [4]) were 100 to 500 nM and over 500 nM, respectively.

With `Cc1sc(-c2c[nH]c3nccnc23)nc1-c1cccc([C@]2(O)CCN(C)C2=O)c1` [Example 66, (R)-3-Hydroxy-1-methyl-3-(3-(5-methyl-2-(5H-pyrrolo[2,3-b]pyrazin-7-yl)thiazol-4-yl)phenyl)pyrrolidin-2-one], the IC50 is at most 100 nM in test [1] and over 500 nM in test [2] (setting [3]).

`CN1CC[C@@](O)(c2cccc(-c3cnc(-c4c[nH]c5ncccc45)n3C)c2)C1=O` [Example 120, (R)-3-hydroxy-1-methyl-3-(3-(1-methyl-2-(1H-pyrrolo[2,3-b]pyridin-3-yl)-1H-imidazol-5-yl)phenyl)pyrrolidin-2-one]: the IC50 in test [1] and in test [2] (setting [3]) was over 500 nM in each case.

On to `CN1CC[C@@](O)(c2cccc(-c3nc(-c4c(F)cnc5[nH]ccc45)cs3)c2)C1=O` [Example 132, (R)-3-(3-(4-(5-Fluoro-1H-pyrrolo[2,3-b]pyridin-4-yl)thiazol-2-yl)phenyl)-3-hydroxy-1-methylpyrrolidin-2-one], for which the IC50 in test [1] and in test [2] (setting [3]) was over 500 nM each time.

For the compound `O[C@@]1(c2cccc(-c3nc(-c4c[nH]c5ncccc45)cs3)c2)CCc2cccnc21` (single isomer, unassigned) [Example 22], the concentration for half-maximal inhibition (IC50) in test [1] is at most 100 nM; in test [2] (setting [4]), 100 to 500 nM.

Regarding `CN1CC[C@](O)(c2cccc(-c3csc(-c4c[nH]c5ncccc45)n3)c2)C1=O` (single isomer, unassigned) [Example 48], the IC50 in test [1] and in test [2] (setting [3]) was over 500 nM in each case.

`CN1CC[C@@](O)(c2cccc(-c3nc(-c4c[nH]c5ncccc45)sc3F)c2)C1=O` (single isomer, unassigned) [Example 99]: the IC50 in test [1] is at most 100 nM; in test [2] (setting [3]), over 500 nM.

For `O[C@@]1(c2cccc(-c3nc(-c4c[nH]c5nccnc45)cs3)c2)CCn2ccnc21` [Example 11, (R)-7-(3-(4-(5H-Pyrrolo[2,3-b]pyrazin-7-yl)thiazol-2-yl)phenyl)-6,7-dihydro-5H-pyrrolo[1,2-a]imidazol-7-ol], the IC50 in test [1] and in test [2] (setting [4]) was at most 100 nM in each case.

Regarding `O[C@@]1(c2cccc(-c3csc(-c4c[nH]c5ncccc45)n3)c2)COc2cccnc21` [Example 16, (R)-3-(3-(2-(1H-Pyrrolo[2,3-b]pyridin-3-yl)thiazol-4-yl)phenyl)-2,3-dihydrofuro[3,2-b]pyridin-3-ol], the half-maximal inhibitory concentration (IC50) is at most 100 nM in test [1] and 100 to 500 nM in test [2] (250 ng/ml BAFF stimulated).

As to `O[C@@]1(c2cccc(-c3csc(-c4c[nH]c5ncc(F)cc45)n3)c2)CCn2ccnc21` [Example 24, (R)-7-(3-(2-(5-Fluoro-1H-pyrrolo[2,3-b]pyridin-3-yl)thiazol-4-yl)phenyl)-6,7-dihydro-5H-pyrrolo[1,2-a]imidazol-7-ol], the IC50 in test [1] and in test [2] (setting [4]) was at most 100 nM each time.

With `O[C@@]1(c2cccc(-c3csc(-c4c[nH]c5nnccc45)n3)c2)CCn2ccnc21` [Example 88, (R)-7-(3-(2-(7H-pyrrolo[2,3-c]pyridazin-5-yl)thiazol-4-yl)phenyl)-6,7-dihydro-5H-pyrrolo[1,2-a]imidazol-7-ol], the half-maximal inhibitory concentration (IC50) is at most 100 nM in test [1] and over 500 nM in test [2] (setting [4]).
